{"source": "patent EP0450065A1", "about": "“ANTIVIRAL AGENT” (priority 1988, dated 1990)", "assay_type_in_all_cases": "cell-based", "key": {"[1]": {"test_system": "herpes simplex virus type 2 (169 strain)", "test": "50% Tissue culture infective dose (TCID50), Read-Munch method, negative logarithm of virus dilution", "parameters": "key to Cytopathic effect [CPE] (5days) △TCID50 / Cytopathic effect [CPE] (6days) △TCID50 / Cytopathic effect [CPE] (3days) △TCID50: difference in -log TCID50 from untreated control; key to Cytopathic effect [CPE] (5days) TCID50 / Cytopathic effect [CPE] (3days) TCID50 / Cytopathic effect [CPE] (6days) TCID50: negative log of maximum virus dilution infecting 50% of tissues", "conditions": "HSV-2 (169); for Cytopathic effect [CPE] (3days) △TCID50 / Cytopathic effect [CPE] (5days) △TCID50 / Cytopathic effect [CPE] (6days) △TCID50: difference from control", "description": "(§1) The amount of virus infecting 50% of tissues (TCID₅₀) was determined by the Read-Munch method and expressed in negative logarithm of the maximum radio of dilution of virus. The difference of the amount thus determined from the amount found in the control (omitting the treatment with a chemical) was reported as ΔTCID₅₀. A sample whose ΔCPE's found on the last day of observation and on each of the days spent for the observation exceeded 1.0 was evaluated as effective.\nIn vitro antiviral activity of Compound A against herpes simplex virus type 2 (169 strain) The test was carried out by following the procedure of Example 3."}, "[2]": {"test_system": "herpes simplex virus type 1 (KOS strain)", "test": "Control of CPE (cytopathic effect) manifestation in vero cells", "conditions": "HSV-1 (KOS), Example 7; for Cytopathic effect [CPE] (3days) △CPE / Cytopathic effect [CPE] (5days) △CPE: difference from control", "description": "Vero cells cultured and grown in a monolayer on microplates to test for cytopathic effect due to viral infection, with solutions of Compound A diluted to varying ratios and solutions of virus diluted to varying ratios added severally thereto in a volume of 0.1 ml, were cultured under the conditions of 5% CO₂ and 37°C and were examined for CPE manifestation under a microscope. The observation was continued for five to six days.\nThe degree of CPE brought about by viral infection was rated on the five-point scale, wherein 3 stands for CPE observed on not less than 75% of cultured cells, 2 for CPE observed on 50% of cultured cells, 1 for CPE observed on 25% of cultured cells, 0.5 for occurrence of one to two extremely minute DPE spots, and 0 for perfect absence of recognizable CPE. The CPE scores obtained at the four holes in each microplate were averaged and the difference of the average from the average obtained in the control (omitting the treatment with a chemical) was reported as ΔCPE.\nAntiviral activity of Compound A and Compound B against herpes simplex virus type 1 (KOS strain) The test was carried out by following the procedure of Example 3."}, "[3]": {"test_system": "herpes simplex virus type 1 (HF strain)", "test": "50% Tissue culture infective dose (TCID50), Read-Munch method, negative logarithm of virus dilution", "description": "In vitro antiviral activity of Compound A against herpes simplex virus type 1 (HF strain) Compound A was tested for antiviral effect by the following two methods.\nas §1\nIn vitro antiviral effect of Compound A against herpes simplex virus type 1 (HF strain) The test was carried out by following the procedure of Example 3."}, "[4]": {"conditions": "5 μg/ml, HSV-1 (HF), Example 3, difference from control"}, "[5]": {"conditions": "10 μg/ml, HSV-1 (HF), Example 3"}, "[6]": {"conditions": "10 μg/ml, HSV-1 (HF), Example 3, difference from control"}, "[7]": {"conditions": "20 μg/ml, HSV-1 (HF), Example 3"}, "[8]": {"conditions": "20 μg/ml, HSV-1 (HF), Example 3, difference from control"}, "[9]": {"conditions": "50 μg/ml, HSV-1 (HF), Example 3"}, "[10]": {"conditions": "50 μg/ml, HSV-1 (HF), Example 3, difference from control"}, "[11]": {"conditions": "100 μg/ml, HSV-1 (HF strain), Example 5"}}}
{"substance": "K₅BW₁₂O₄₀.15H₂O [Compound A]", "values": [{"measurement": "Cytopathic effect [CPE] (3days) TCID50", "setting": "[1]; 5 μg/ml, Example 4", "result": 6.5}, {"measurement": "Cytopathic effect [CPE] (5days) TCID50", "setting": "[1]; 5 μg/ml, Example 4", "result": 6.7}, {"measurement": "Cytopathic effect [CPE] (3days) △TCID50", "setting": "[1]; 5 μg/ml, Example 4", "result": 0}, {"measurement": "Cytopathic effect [CPE] (5days) △TCID50", "setting": "[1]; 5 μg/ml, Example 4", "result": 0.2}, {"measurement": "Cytopathic effect [CPE] (3days) TCID50", "setting": "[1]; 10 μg/ml, Example 4", "result": 6.3}, {"measurement": "Cytopathic effect [CPE] (5days) TCID50", "setting": "[1]; 10 μg/ml, Example 4", "result": 6.3}, {"measurement": "Cytopathic effect [CPE] (3days) △TCID50", "setting": "[1]; 10 μg/ml, Example 4", "result": 0.2}, {"measurement": "Cytopathic effect [CPE] (5days) △TCID50", "setting": "[1]; 10 μg/ml, Example 4", "result": 0.2}, {"measurement": "Cytopathic effect [CPE] (3days) TCID50", "setting": "[1]; 20 μg/ml, Example 4", "result": 6.5}, {"measurement": "Cytopathic effect [CPE] (5days) TCID50", "setting": "[1]; 20 μg/ml, Example 4", "result": 6.2}, {"measurement": "Cytopathic effect [CPE] (3days) △TCID50", "setting": "[1]; 20 μg/ml, Example 4", "result": 0}, {"measurement": "Cytopathic effect [CPE] (5days) △TCID50", "setting": "[1]; 20 μg/ml, Example 4", "result": 0.3}, {"measurement": "Cytopathic effect [CPE] (3days) TCID50", "setting": "[1]; 50 μg/ml, Example 4", "result": 5.5}, {"measurement": "Cytopathic effect [CPE] (5days) TCID50", "setting": "[1]; 50 μg/ml, Example 4", "result": 5.5}, {"measurement": "Cytopathic effect [CPE] (3days) △TCID50", "setting": "[1]; 50 μg/ml, Example 4", "result": 1.0}, {"measurement": "Cytopathic effect [CPE] (5days) △TCID50", "setting": "[1]; 50 μg/ml, Example 4", "result": 1.0}, {"measurement": "Cytopathic effect [CPE] (3days) TCID50", "setting": "[1]; 100 μg/ml, Example 4", "result": 3.5}, {"measurement": "Cytopathic effect [CPE] (5days) TCID50", "setting": "[1]; 100 μg/ml, Example 4", "result": 3.5}, {"measurement": "Cytopathic effect [CPE] (3days) △TCID50", "setting": "[1]; 100 μg/ml, Example 4", "result": 3.0}, {"measurement": "Cytopathic effect [CPE] (5days) △TCID50", "setting": "[1]; 100 μg/ml, Example 4", "result": 3.0}, {"measurement": "Cytopathic effect [CPE] (3days) TCID50", "setting": "[1]; 100 μg/ml, Example 6", "result": "< 3.5"}, {"measurement": "Cytopathic effect [CPE] (6days) TCID50", "setting": "[1]; 100 μg/ml, Example 6", "result": "< 3.5"}, {"measurement": "Cytopathic effect [CPE] (3days) △TCID50", "setting": "[1]; 100 μg/ml, Example 6", "result": "> 3.2"}, {"measurement": "Cytopathic effect [CPE] (6days) △TCID50", "setting": "[1]; 100 μg/ml, Example 6", "result": "> 3.2"}, {"measurement": "Cytopathic effect [CPE] (3days) TCID50", "setting": "[1]; 200 μg/ml, Example 6", "result": "< 3.5"}, {"measurement": "Cytopathic effect [CPE] (6days) TCID50", "setting": "[1]; 200 μg/ml, Example 6", "result": "< 3.5"}, {"measurement": "Cytopathic effect [CPE] (3days) △TCID50", "setting": "[1]; 200 μg/ml, Example 6", "result": "> 3.2"}, {"measurement": "Cytopathic effect [CPE] (6days) △TCID50", "setting": "[1]; 200 μg/ml, Example 6", "result": "> 3.2"}, {"measurement": "Cytopathic effect [CPE] (3days) Average", "setting": "[2]; 100 μg/ml", "result": 0}, {"measurement": "Cytopathic effect [CPE] (5days) Average", "setting": "[2]; 100 μg/ml", "result": 0}, {"measurement": "Cytopathic effect [CPE] (3days) △CPE", "setting": "[2]; 100 μg/ml", "result": 2.0}, {"measurement": "Cytopathic effect [CPE] (5days) △CPE", "setting": "[2]; 100 μg/ml", "result": 3.0}, {"measurement": "Cytopathic effect [CPE] (3days) Average", "setting": "[2]; 200 μg/ml", "result": 0}, {"measurement": "Cytopathic effect [CPE] (5days) Average", "setting": "[2]; 200 μg/ml", "result": 0}, {"measurement": "Cytopathic effect [CPE] (3days) △CPE", "setting": "[2]; 200 μg/ml", "result": 2.0}, {"measurement": "Cytopathic effect [CPE] (5days) △CPE", "setting": "[2]; 200 μg/ml", "result": 3.0}, {"measurement": "Cytopathic effect [CPE] (3days) TCID50", "setting": "[3]; 5 μg/ml, HSV-1 (HF), Example 3", "result": 5.5}, {"measurement": "Cytopathic effect [CPE] (5days) TCID50", "setting": "[3]; 5 μg/ml, HSV-1 (HF), Example 3", "result": 5.7}, {"measurement": "Cytopathic effect [CPE] (3days) △TCID50", "setting": "[3]; [4]", "result": 0.5}, {"measurement": "Cytopathic effect [CPE] (5days) △TCID50", "setting": "[3]; [4]", "result": 0.3}, {"measurement": "Cytopathic effect [CPE] (3days) TCID50", "setting": "[3]; [5]", "result": 5.7}, {"measurement": "Cytopathic effect [CPE] (5days) TCID50", "setting": "[3]; [5]", "result": 5.7}, {"measurement": "Cytopathic effect [CPE] (3days) △TCID50", "setting": "[3]; [6]", "result": 0.3}, {"measurement": "Cytopathic effect [CPE] (5days) △TCID50", "setting": "[3]; [6]", "result": 0.3}, {"measurement": "Cytopathic effect [CPE] (3days) TCID50", "setting": "[3]; [7]", "result": 5.7}, {"measurement": "Cytopathic effect [CPE] (5days) TCID50", "setting": "[3]; [7]", "result": 5.7}, {"measurement": "Cytopathic effect [CPE] (3days) △TCID50", "setting": "[3]; [8]", "result": 0.3}, {"measurement": "Cytopathic effect [CPE] (5days) △TCID50", "setting": "[3]; [8]", "result": 0.3}, {"measurement": "Cytopathic effect [CPE] (3days) TCID50", "setting": "[3]; [9]", "result": 5.7}, {"measurement": "Cytopathic effect [CPE] (5days) TCID50", "setting": "[3]; [9]", "result": 5.7}, {"measurement": "Cytopathic effect [CPE] (3days) △TCID50", "setting": "[3]; [10]", "result": 0.3}, {"measurement": "Cytopathic effect [CPE] (5days) △TCID50", "setting": "[3]; [10]", "result": 0.3}, {"measurement": "Cytopathic effect [CPE] (3days) TCID50", "setting": "[3]; [11]", "result": 4.7}, {"measurement": "Cytopathic effect [CPE] (6days) TCID50", "setting": "[3]; [11]", "result": 5.0}, {"measurement": "Cytopathic effect [CPE] (3days) ΔTCID50", "setting": "[3]; 100 μg/ml, HSV-1 (HF strain), Example 5, difference from control", "result": 1.6}]}
